Legend:
[1] = ADI of trace elements and other components
Description: (§1) Several trace elements are essential to cell metabolism and growth. […] As a novel alternative to formulating trace elements directly, the present disclosure discloses the identification and testing of food-safe complexes that innately contain trace elements.

[2] = cited from earlier work; for Safe Reference Level for Human Dietary Intake: UL: Tolerable Upper Limit
[3] = Safety assessment framework: risk categorization of media components
Experimental: A safety assessment was conducted on each component of a given cell culture media under the procedure outlined below. […] Further overview of the categorical framework for ensuring that culture media components are safe and suitable for their intended use in meat production are outlined below according to their category designation. A list of media components used during meat production along with worst-case exposure estimates and relevant authoritative limits or published toxicological/safety data supporting their use is presented in Table 16. • Category 1: These cell culture media components are food ingredients/additives that are GRAS or permitted by federal regulation without limitation on use. Exemplary compounds in this category include innocuous ingredients such as sugars, pH buffers, water soluble vitamins, and common antioxidants such as tocopherols. • Category 2. These cell culture media components are common dietary nutrients and are anticipated to have GRAS status for food use or be permitted by regulation for addition to food. Examples of such compounds include most of the inorganic salts and macronutrients that are present within the cell culture media. […] In some instances, consideration of established safe levels (e.g., ADI, UL) derived from a relevant authoritative body (e.g., U.S. FDA, EFSA, JECFA, FSANZ, U.S. EPA) may be leveraged to support safety. If comparisons of anticipated dietary intakes relative to an authoritative reference intake value is used, consideration of additive intakes from all dietary sources may be considered. In the absence of an authoritative reference intake value, published NOAELs from animal toxicology studies may be used to evaluate safety using standard scientific procedures for food safety evaluation. A margin of exposure (MoE) of 100-fold or greater between the NOAEL and estimated dietary intakes from food exposures is typically considered adequate to support safety. In situations where the MoE is <100-fold, additional measures for further reduction of the media component may be necessary, or further characterization of intraspecies/interspecies differences in metabolism may be necessary. These situations also require careful consideration of the regulatory status on a case-by-case basis (e.g., premarket approval as a food additive or GRAS evaluation required). • Category 3. […] For Category 3 substances a final consideration in the safety assessment process may involve hazard characterization of the potential for a substance to produce toxic biological effects outside of the endpoints measured in a sub-chronic rat toxicity study. […] Considerations for allergenicity, biological effects in humans (e.g., effects on blood pressure), and synergistic effects with other media components also may be evaluated. […]

[4] = Margin between estimated intake of a 65 kg adult and rat NOAEL; details: 65 kg adult
Experimental: A safety assessment was conducted on each component of a given cell culture media under the procedure outlined below. […] Further overview of the categorical framework for ensuring that culture media components are safe and suitable for their intended use in meat production are outlined below according to their category designation. A list of media components used during meat production along with worst-case exposure estimates and relevant authoritative limits or published toxicological/safety data supporting their use is presented in Table 16. • Category 1: These cell culture media components are food ingredients/additives that are GRAS or permitted by federal regulation without limitation on use. Exemplary compounds in this category include innocuous ingredients such as sugars, pH buffers, water soluble vitamins, and common antioxidants such as tocopherols. • Category 2. These cell culture media components are common dietary nutrients and are anticipated to have GRAS status for food use or be permitted by regulation for addition to food. Examples of such compounds include most of the inorganic salts and macronutrients that are present within the cell culture media. […] In some instances, consideration of established safe levels (e.g., ADI, UL) derived from a relevant authoritative body (e.g., U.S. FDA, EFSA, JECFA, FSANZ, U.S. EPA) may be leveraged to support safety. If comparisons of anticipated dietary intakes relative to an authoritative reference intake value is used, consideration of additive intakes from all dietary sources may be considered. […] For Category 3 substances a final consideration in the safety assessment process may involve hazard characterization of the potential for a substance to produce toxic biological effects outside of the endpoints measured in a sub-chronic rat toxicity study. […] Considerations for allergenicity, biological effects in humans (e.g., effects on blood pressure), and synergistic effects with other media components also may be evaluated. […]

[5] = Maximum (worst-case) dietary exposure estimate per 100 g serving; details: assumes complete transfer of media components to the finished product on a wt/wt basis
Experimental: The average daily intake (ADI) is conventionally determined as a result of a safety factor of 100-fold below the experimentally derived No Observable Adverse Effect Limits (NOAEL) for an appropriate animal species for sub-chronic or acute exposure. […] The ADI is determined in an appropriately sensitive species, usually rodent, and it is reported as mg of substance/kg of animal body weight/24-hour period. Calculating the maximum theoretical concentration of each media compound in the final product is done by assuming 100% incorporation of the compound from the media into the product.
A safety assessment was conducted on each component of a given cell culture media under the procedure outlined below.

[6] = test system: Adherent Gallus cells; assay: Cellular response to cis recombinant Gallus FGF-2 vs commercial human recombinant FGF-2; format: cell-based; details: growth factor at 10 μg/L and 100 μg/L, five days
Experimental: Adherent Gallus cells were thawed and seeded at a density of 5000 cells/cm^2 in a T25-flask. One medium was prepared according to standard media hydration protocols. Dry powder media was added to DI water in a clean vessel and allowed to stir until all components were dissolved. The pH and osmolality of the medium were adjusted to 7.4 and 300 mOsm/kg respectively. The medium was then filtered using a 0.22 μm PES filtration unit and stored at 4° C. until use. Prior to use, the medium was allowed to come up to room temperature. Cells were seeded in the inner wells of a 96-well cell culture plate. Wells were either seeded with one of two different FGF-2 growth factors, a recombinant Gallus FGF-2 produced as described in Example 5, or a commercially available recombinant human FGF-2, or without any growth factors. Each growth factor was seeded at two different concentrations, 10 μg/L or 100 μg/L. Test conditions were all seeded in triplicate at a density of 5000 cells/cm^2. Cells were incubated at 39° C. in 5% CO2 in a Biotek BioSpa Live Cell Analysis System (BioSpa) for five days. Cells were imaged every 12 hours using the BioSpa. Images were processed using BioTeck Gen5 Data Analysis software. Data was then exported and analyzed using Microsoft Excel and SAS JMP.

[7] = test system: cells; assay: Screening of cobalt compounds to replace cobalt chloride; format: cell-based; details: replacement of cobalt chloride
Description: Cobalt is an essential cofactor nutrient for many enzymatic pathways that contribute to metabolic and cellular function. Cobalt chloride is a commonly used source of cobalt in culture media. Cobalt chloride is strictly prohibited by the FDA for use in food. In order to find a suitable replacement, many cobalt compounds were screened. Eventually, Vitamin B12 in the form of cyanocobalamin, which contains bioavailable cobalt at its chiral center, was found. […] In some embodiments the method comprises removing cobalt chloride. In some embodiments the method comprises replacing cobalt chloride with cyanocobalamin (Vit B12).

[8] = test system: cells; details: FAC 0.5 mg/ml-50 mg/ml, up to 275 hours, vs cells without FAC
Description: as §1

O=C(O)CCCCC1CCSS1 (racemic) [DL-ALPHA-LIPOIC ACID]
ADI [1]: 5.14 mg/kg bw-day

CC(=O)Oc1c(C)c(C)c2c(c1C)CCC(C)(CCCC(C)CCCC(C)CCCC(C)C)O2 (racemic) [DL-ALPHA-TOCOPHEROL ACETATE]
Safe Reference Level for Human Dietary Intake: UL [2]: UL = 1000 mg/d

Cc1c(C)c2c(c(C)c1O)CC[C@@](C)(CCC[C@H](C)CCC[C@H](C)CCCC(C)C)O2 [D-ALPHA-TOCOPHEROL]
Safe Reference Level for Human Dietary Intake: UL [2]: UL = 1000 mg/d

N[C@@H](CCC(=O)[O-])C(=O)O.O.[Na+] [L-GLUTAMIC ACID MONOSODIUM H20]
Risk Assessment Category [3]: 2

O=S(=O)([O-])[O-].[Mg+2] [MAGNESIUM SULFATE (ANHY)]
Safe Reference Level for Human Dietary Intake: UL (in words) ([2]; NS = not specified as no evidence of toxicity from excess intake known): No UL for food

NCCO [MONOETHANOLAMINE]
Intakes below NOAEL ([4]; rat NOAEL): kg adult are 128 fold

Cl.Cl.NCCCCN [PUTRESCINE-2HCl]
ADI [1]: 0.018 mg/kg bw-day

[Cl-].[Rb+] [RUBIDIUM CHLORIDE]
ADI [1]: 0.051 mg/kg bw-day

O.O.[Na+].[Na+].[O]=[Mo](=[O])([O-])[O-] [SODIUM MOLYBDATE-2H2O]
ADI [1]: 1.41 mg/kg bw-day

O=P([O-])([O-])O.[Na+].[Na+] [SODIUM PHOSPHATE DIBASIC-ANHY]
Risk Assessment Category [3]: 1
Maximum Estimated Exposure per 100 g serving [5]: 4.3 g

O.O.O.O.O.O.O=C([O-])CCC(=O)[O-].[Na+].[Na+] [SODIUM SUCCINATE-2Na 6H20]
Intakes below NOAEL ([4]; NOAEL from 2 year rat study): are >1000 fold below

O.O.O.O.O.O.[Cl-].[Cl-].[Sr+2] [STRONTIUM CHLORIDE HEXAHYDRATE]
ADI [1]: 1.87 mg/kg bw-day

O=C(O)CCC(=O)O [SUCCINIC ACID]
Intakes below NOAEL ([4]; NOAEL from 2 year rat study): adult are 257-fold

Cc1cn([C@H]2C[C@H](O)[C@@H](CO)O2)c(=O)[nH]c1=O [THYMIDINE SYNTHETIC, THYMIDINE]
ADI [1]: 83.1 mg/kg bw-day

CCCCCCCC/C=C\CCCCCCCC(=O)OCCOCC(OCCO)C1OCC(OCCO)C1OCCO (stereo not shown) [TWEEN 80]
Safe Reference Level for Human Dietary Intake: ADI ([2]; Acceptable Daily Intake): ADI = 10 mg/kg bw/d

C=C1CC[C@H](O)C/C1=C/C=C1\CCC[C@]2(C)[C@@H]([C@H](C)/C=C/[C@H](C)C(C)C)CC[C@@H]12 [VITAMIN D2 (ERGOCALCIFEROL), ERGOCALCIFEROL]
Safe Reference Level for Human Dietary Intake: UL [2]: UL = 100 ug/d

CALCIUM D-PANTOTHENATE
Risk Assessment Category [3]: 1

FERRIC CITRATE
Risk Assessment Category [3]: 2

commercial human FGF-2: commercially available recombinant human FGF-2 [reference compound]
cellular response [6]: equivalent activity
cellular response ([6]; listed as human recombinant FGF-2): equivalent response

cyanocobalamin [VITAMIN B12 (CYANCOCOBALAMIN)]
supply of cobalt to promote cellular function [7]: sufficiently supplied cobalt

ferric ammonium citrate [FAC]
cell viability over time [8]: maintain high viability over time

B1: cis Gallus FGF-2: recombinant Gallus FGF-2 produced in E. coli as described in Example 5 (protein, UniProt P48800 13-158, looked up)
Fibroblast growth factor 2: PALPDDGGGGAFPPGHFKDPKRLYCKNGGFFLRINPDGRVDGVREKSDPHIKLQLQAEERGVVSIKGVSANRFLAMKEDGRLLALKCATEECFFFERLESNNYNTYRSRKYSDWYVALKRTGQYKPGPKTGPGQKAILFLPMSAKS
cellular response [6]: equivalent activity
cellular response ([6]; listed as cis recombinant Gallus FGF-2): equivalent response
